The source of these data is PubChem BioAssay AID2415 (Johns Hopkins Ion Channel Center, 2010).

Molecules are shown by their SMILES.

Common to all, as to assay: potentiation across KCNQ channel subtypes – cell-based, manual patch clamp, mode of action, selectivity assay for KCNQ2 potentiator project, late-stage follow-up (AID 2415)
In experiment [1] the target is Potassium voltage-gated channel subfamily KQT member 1 (Homo sapiens) (UniProt P51787). The following applies: KCNQ channels in transfected CHO cells, manual whole-cell patch clamp current, at 10 µM.
Experiment [2] deals with Potassium voltage-gated channel subfamily KQT member 2 (Rattus norvegicus) (UniProt O88943). The settings on record: KCNQ channels in transfected CHO cells, manual whole-cell patch clamp current; measured here: KCNQ2 current ratio; at 10 µM; stronger effect = higher value. Background: The patch-clamp technique gives a direct electrical read-out from membranes.
The target of experiment [3] is Potassium voltage-gated channel subfamily KQT member 3 (Rattus norvegicus) (UniProt O88944). The settings on record: KCNQ channels in transfected CHO cells, manual whole-cell patch clamp current; measured here: KCNQ3 current ratio; at 10 µM; stronger effect = higher value.
Experiment [4] addresses Potassium voltage-gated channel subfamily KQT member 4 (Homo sapiens) (UniProt P56696). The settings on record: KCNQ channels in transfected CHO cells, manual whole-cell patch clamp current; measured here: KCNQ4 current ratio; at 10 µM; stronger effect = higher value.
Experiment [5] has as its target Potassium voltage-gated channel subfamily KQT member 5 (Homo sapiens) (UniProt Q9NR82). The settings on record: KCNQ channels in transfected CHO cells, manual whole-cell patch clamp current; measured here: KCNQ5 current ratio; at 10 µM; stronger effect = higher value.

Chain of Potassium voltage-gated channel subfamily KQT member 1 (Homo sapiens) (P51787 whole entry, looked up): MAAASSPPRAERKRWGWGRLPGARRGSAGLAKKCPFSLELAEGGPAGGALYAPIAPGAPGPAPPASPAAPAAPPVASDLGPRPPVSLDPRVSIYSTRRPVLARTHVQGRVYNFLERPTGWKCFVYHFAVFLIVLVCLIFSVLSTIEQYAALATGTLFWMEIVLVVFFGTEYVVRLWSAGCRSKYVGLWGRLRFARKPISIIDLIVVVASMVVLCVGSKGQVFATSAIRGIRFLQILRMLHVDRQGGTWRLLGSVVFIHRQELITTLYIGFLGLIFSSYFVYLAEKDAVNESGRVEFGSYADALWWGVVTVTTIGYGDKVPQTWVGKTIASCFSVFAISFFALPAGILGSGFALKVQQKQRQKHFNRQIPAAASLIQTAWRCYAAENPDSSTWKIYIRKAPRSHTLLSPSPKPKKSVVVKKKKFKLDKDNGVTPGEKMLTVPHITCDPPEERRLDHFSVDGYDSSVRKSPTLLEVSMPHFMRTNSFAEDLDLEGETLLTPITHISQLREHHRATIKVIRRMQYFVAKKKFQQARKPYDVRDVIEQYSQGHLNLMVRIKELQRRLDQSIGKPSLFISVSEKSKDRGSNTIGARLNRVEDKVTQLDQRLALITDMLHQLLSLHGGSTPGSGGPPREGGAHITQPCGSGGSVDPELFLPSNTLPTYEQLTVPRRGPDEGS
Chain of Potassium voltage-gated channel subfamily KQT member 5 (Homo sapiens) (Q9NR82 whole entry, looked up): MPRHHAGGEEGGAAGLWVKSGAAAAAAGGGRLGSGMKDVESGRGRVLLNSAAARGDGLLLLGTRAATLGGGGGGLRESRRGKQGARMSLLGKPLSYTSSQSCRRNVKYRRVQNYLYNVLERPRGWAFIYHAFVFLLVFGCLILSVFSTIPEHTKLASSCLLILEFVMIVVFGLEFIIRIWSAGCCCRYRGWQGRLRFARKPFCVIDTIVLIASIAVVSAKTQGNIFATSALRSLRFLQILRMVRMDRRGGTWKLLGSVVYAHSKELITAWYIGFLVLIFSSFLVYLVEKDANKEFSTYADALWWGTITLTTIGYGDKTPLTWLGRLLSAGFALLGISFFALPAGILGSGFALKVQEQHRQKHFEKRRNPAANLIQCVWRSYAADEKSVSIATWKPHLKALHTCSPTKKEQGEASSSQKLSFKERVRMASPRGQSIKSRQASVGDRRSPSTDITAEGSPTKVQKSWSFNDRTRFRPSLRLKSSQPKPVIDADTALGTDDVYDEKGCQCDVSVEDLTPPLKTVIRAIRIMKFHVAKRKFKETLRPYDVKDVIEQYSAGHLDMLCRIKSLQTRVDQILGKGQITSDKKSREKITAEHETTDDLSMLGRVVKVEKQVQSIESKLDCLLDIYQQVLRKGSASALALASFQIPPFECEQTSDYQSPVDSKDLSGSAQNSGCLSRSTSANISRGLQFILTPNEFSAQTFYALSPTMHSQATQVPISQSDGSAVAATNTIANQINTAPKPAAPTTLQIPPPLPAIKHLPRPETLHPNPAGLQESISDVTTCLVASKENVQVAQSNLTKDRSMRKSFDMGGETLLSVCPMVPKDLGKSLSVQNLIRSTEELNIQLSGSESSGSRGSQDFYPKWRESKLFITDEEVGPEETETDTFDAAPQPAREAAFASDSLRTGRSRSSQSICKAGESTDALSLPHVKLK
Chain of Potassium voltage-gated channel subfamily KQT member 2 (Rattus norvegicus) (O88943 whole entry, looked up): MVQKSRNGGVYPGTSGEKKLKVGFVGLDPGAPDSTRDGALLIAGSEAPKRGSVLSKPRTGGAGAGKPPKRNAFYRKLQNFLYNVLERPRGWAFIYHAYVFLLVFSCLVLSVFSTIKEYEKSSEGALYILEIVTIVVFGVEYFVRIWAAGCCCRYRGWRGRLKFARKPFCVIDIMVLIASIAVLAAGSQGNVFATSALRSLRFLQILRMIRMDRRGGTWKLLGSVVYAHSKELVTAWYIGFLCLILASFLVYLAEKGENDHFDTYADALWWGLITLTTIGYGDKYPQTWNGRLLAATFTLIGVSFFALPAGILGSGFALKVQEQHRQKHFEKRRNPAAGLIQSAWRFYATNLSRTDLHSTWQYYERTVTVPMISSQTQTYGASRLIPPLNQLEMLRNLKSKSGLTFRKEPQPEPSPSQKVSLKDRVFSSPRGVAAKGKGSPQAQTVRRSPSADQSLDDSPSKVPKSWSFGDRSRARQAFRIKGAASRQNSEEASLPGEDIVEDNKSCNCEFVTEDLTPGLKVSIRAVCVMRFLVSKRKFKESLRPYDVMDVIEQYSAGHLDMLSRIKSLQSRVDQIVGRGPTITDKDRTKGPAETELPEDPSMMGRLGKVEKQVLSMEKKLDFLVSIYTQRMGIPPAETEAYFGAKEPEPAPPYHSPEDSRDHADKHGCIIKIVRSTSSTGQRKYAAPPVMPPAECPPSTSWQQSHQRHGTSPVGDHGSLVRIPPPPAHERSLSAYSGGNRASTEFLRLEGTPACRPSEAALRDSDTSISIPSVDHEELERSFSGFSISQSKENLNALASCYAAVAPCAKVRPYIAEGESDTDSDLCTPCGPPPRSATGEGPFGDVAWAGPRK
Chain of Potassium voltage-gated channel subfamily KQT member 3 (Rattus norvegicus) (O88944 whole entry, looked up): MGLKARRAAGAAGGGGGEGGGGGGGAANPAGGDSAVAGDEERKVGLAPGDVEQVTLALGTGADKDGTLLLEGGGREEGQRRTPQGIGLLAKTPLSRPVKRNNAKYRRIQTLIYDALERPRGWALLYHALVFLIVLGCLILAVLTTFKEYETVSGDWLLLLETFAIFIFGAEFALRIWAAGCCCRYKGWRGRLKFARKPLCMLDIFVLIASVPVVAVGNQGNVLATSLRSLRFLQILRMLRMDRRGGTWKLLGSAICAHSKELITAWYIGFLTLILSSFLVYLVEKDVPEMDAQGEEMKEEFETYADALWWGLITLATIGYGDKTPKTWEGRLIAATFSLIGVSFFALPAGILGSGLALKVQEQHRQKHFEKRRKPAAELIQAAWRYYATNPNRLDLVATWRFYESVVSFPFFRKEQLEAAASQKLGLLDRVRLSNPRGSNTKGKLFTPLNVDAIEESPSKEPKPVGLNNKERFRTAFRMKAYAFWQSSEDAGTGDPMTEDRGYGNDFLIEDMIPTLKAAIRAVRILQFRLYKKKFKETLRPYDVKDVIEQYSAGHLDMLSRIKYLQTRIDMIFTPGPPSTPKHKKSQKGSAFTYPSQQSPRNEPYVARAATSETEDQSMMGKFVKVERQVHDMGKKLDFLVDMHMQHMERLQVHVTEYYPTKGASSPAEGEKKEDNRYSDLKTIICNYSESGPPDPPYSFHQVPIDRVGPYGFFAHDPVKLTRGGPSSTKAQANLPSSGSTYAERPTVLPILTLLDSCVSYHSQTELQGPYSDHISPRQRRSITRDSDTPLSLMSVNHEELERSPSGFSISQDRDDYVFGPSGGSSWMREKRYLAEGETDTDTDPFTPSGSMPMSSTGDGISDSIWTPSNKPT
Chain of Potassium voltage-gated channel subfamily KQT member 4 (Homo sapiens) (P56696 whole entry, looked up): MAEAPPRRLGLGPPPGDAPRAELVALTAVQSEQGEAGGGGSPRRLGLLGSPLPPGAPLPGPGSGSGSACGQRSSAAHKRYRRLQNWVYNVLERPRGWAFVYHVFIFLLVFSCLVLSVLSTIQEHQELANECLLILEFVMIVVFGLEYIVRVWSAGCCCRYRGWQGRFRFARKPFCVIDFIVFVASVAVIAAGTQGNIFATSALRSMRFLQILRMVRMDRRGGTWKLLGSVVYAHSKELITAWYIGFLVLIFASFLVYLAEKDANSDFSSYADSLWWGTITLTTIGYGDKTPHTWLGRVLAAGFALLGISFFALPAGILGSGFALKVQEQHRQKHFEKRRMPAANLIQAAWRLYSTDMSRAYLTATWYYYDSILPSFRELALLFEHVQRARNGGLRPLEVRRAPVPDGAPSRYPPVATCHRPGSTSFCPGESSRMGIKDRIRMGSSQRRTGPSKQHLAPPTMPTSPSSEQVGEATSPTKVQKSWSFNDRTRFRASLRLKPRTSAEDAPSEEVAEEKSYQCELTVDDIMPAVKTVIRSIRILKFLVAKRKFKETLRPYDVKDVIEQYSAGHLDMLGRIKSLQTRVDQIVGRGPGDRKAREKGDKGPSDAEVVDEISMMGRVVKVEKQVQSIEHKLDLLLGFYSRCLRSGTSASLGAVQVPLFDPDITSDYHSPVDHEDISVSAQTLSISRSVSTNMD

For `O=C(Nc1ccc(Cl)nc1)c1ccc(F)cc1`, the current ratio I/I0 in experiment [1] (stronger effect = higher value) stood at 0.9; in experiment [2], 1.9; in experiment [3], 1; in experiment [4] it was 2.4; in experiment [5] it was 3.5. Moreover, in experiment [1] (measured here: KCNQ2 deactivation time constant, stronger effect = higher value), the deactivation tau was found to be 51.8 ms. Also, the V1/2 in experiment [1] (measured here: KCNQ2 half activation voltage, stronger effect = lower value) is -16.6 mV.
